In US20050042661A1, “Use of novel compounds to release nucleotides from living cells” (priority 2003, published 2005) one finds ATP extraction efficiency data, which are given here for one compound.

Assay [1] concerns whole blood diluted with physiological saline 200 times. Briefly: Extraction efficiency test of ATP, whole blood. The class given is cell-based. The following applies: Whole blood diluted 200 times. As for the experimental part:
(§1) The extraction efficiency of the release reagent based on a quaternary ethoxylated amine and an ethoxylated amine mixture was also tested against the boiling tris-EDTA buffer and the perchloric acid extraction methods. The samples consisted of whole blood diluted with physiological saline 200 times, a suspension of E. coli bacteria in concentration of one million cells per milliliter, and a suspension of green algae, Chlorella sp. […]
(§2) Measurement of ATP by bioluminescence: 100 microliter aliquots of extracted sample solution were pipetted into transparent glass cuvettes and these were placed into the light-tight reaction chamber of a photon counter. […] The light emission was integrated for 10 seconds and the results read on the digital display as relative light units. The relative light units were converted to ATP by internal standardization whereby a known quantity of ATP standard was added into an aliquot of the extracted sample and measured as above. […] By subtracting the reading of the sample from that of the sample+added ATP standard a conversion factor for relative light units to ATP was calculated.

For assay [2], the system named is E. coli bacteria. Put plainly: Extraction efficiency test of ATP, E. coli suspension. The following applies: one million cells per milliliter. The class given is cell-based. How it is done:
as §1, §2

`[O-][Cl+3]([O-])([O-])O` [Perchloric acid method, perchloric acid]: the ATP extraction efficiency stood at 7% in assay [1] and 3% in assay [2].
